Data as given in US10369138B2, “Monobactam organic compounds for the treatment of bacterial infections” (Novartis AG, priority 2014, dated 2019).
Converted amounts (≈) assume the structure as drawn.

Key:
[1] = system: E. coli strain 25922; assay: MIC by broth microdilution, E. coli strain 25922; assay type: cell-based; conditions: Escherichia coli, 25922, E. coli strain 25922; read-out: Ec 25922 (MIC)
Procedure: (§1) Bacterial isolates were cultivated from −70° C. frozen stocks by two consecutive overnight passages at 35° C. in ambient air on 5% blood agar (Remel, Lenexa, Kans.). Quality control and P. aeruginosa ATCC 27853) is from the American Type Culture Collection (ATCC; Rockville, Md.) and PAO1 was received from Dr. K. Poole.
Minimal Inhibitory Concentrations (MICs) were determined by the broth microdilution method in accordance with Clinical and Laboratories Institute (CLSI) guidelines. In brief, fresh overnight bacterial cultures were suspended in sterile saline, and adjusted to a 0.5 McFarland turbidity standard. Bacterial suspensions were then diluted in cation adjusted Mueller-Hinton Broth (MHB II; BBL) to yield a final inoculum of approximately 5×10^5 colony-forming units (CFU)/mL. A master plate of antibiotics was prepared at a concentration equivalent to hundred-fold the highest desired final concentration in 100% dimethyl sulfoxide (DMSO). The master antibiotic plate was then diluted by serial twofold dilution with a multichannel pipette. The resulting dilution series of compounds were diluted 1:10 with sterile water leading to a 10% DMSO final concentration. A volume of 10 μL of the drug dilution series was transferred to 96-well assay plates. Assay plates were inoculated with 90 μL of bacterial suspensions and incubated at 35-37° C. for 20 hrs. The assay plates were read using a microtiter plate reader (Molecular Devices) at 600 nm as well as by visual observation with a reading mirror. The lowest concentration of the compound that prevented visible growth was recorded as the MIC. Performance of the assay was monitored by testing aztreonam against laboratory quality control strains in accordance with guidelines of the CLSI.

[2] = system: E. coli containing KPC-2; assay: MIC by broth microdilution, E. coli containing KPC-2 (Ec KPC2 Iso); assay type: cell-based; conditions: Escherichia coli, read-out: Ec KPC2 Iso (MIC), E. coli containing KPC-2 (carbapenemase from Klebsiella pneumoniae)
Procedure: as §1
Strain NB27273 (BW25113 pspB::Km^r) was obtained from the Keio transposon insertion collection. The strain has the pspB gene replaced by a kanamycin resistance marker (BW25113 pspB::Km^r). This strain was cured of the transposon in pspB via FLP recombinase using published methodology. The resulting strain, BW25113 pspB, was used as a host for multicopy vectors expressing key β-lactamases. Multicopy plasmids directing constitutive expression of β-lactamases were established as follows: Synthetic, codon optimized genes encoding E. coli KPC2 and SHV12 β-lactamases were made by DNA2.0 (Palo Alto, Calif.). Each of the synthetic fragments were designed to contain NotI and NcoI restriction sites at their termini, allowing ligation into a NotI/NcoI digested pET28a(+) derivative for protein expression. […] The codon optimized nucleotide sequences and relevant primer recognition information is shown below:
The PCR products were then digested with XhoI and EcoRI and ligated into similarly digested plasmid pAH63-pstS(BlaP). Plasmid pAH63-pstS(BlaP) is a derivative of plasmid pAH63 (J Bacteriol: 183(21): 6384-6393) made by cloning the TEM-1 (bla) promoter and signal peptide encoding region from plasmid pBAD (J Bacteriol. 1995 July 177(14):4121-30) into plasmid pAH63. This fragment was PCR amplified from pBAD using primer pair E192 (ttca[…]) (SEQ ID NO:13) and E194 ([…]) (SEQ ID NO:14), digested with PstI and BamHI and inserted into similarly digested plasmid pAH63. Therefore, expression of β-lactamases from pAH63-pstS(BlaP) based constructs is constitutive and the signal sequence is provided to direct these proteins to the periplasm. Plasmid pAH63 based vectors are used for insertion into the genome in single copy, however, to provide higher expression levels to allow more sensitive detection of the susceptibility of compounds to the β-lactamases, the expression inserts contained in these vectors were moved to the replicative multicopy vector pBAD-Kan (J Bacteriol. 1995 July 177(14):4121-30). To accomplish this, the inserts encompassing the β-lactamase genes, with the associated TEM promoter and signal sequences, were PCR amplified from their corresponding vectors using primer E269 (ccg[…]) (SEQ ID NO:15) and E202 (aatc[…]) (SEQ ID NO:16) for the KPC2 construct and E204 (aatc[…]) (SEQ ID NO:17) for the SHV12 construct. These fragments were then digested with XbaI and EcoRI, and each was inserted into pBAD18-kan that had been digested with the same enzymes to generate a pair of multicopy vectors expressing KPC2 and SHV12 respectively. These vectors were transformed into BW25113 pspB to generate strains NB27273-CDY0033 (expressing KPC2) and NB27273-CDY0030 (expressing SHV12). The pBAD18-kan vector also contains the TEM promoter region and signal sequence, (but lacks any intact β-lactamase genes) and was transformed into BW25113 pspB using standard protocols to generate the control strain NB27273-CDY0026. Expression of the β-lactamases was confirmed by verifying decreased susceptibility to example test antibiotics that are known substrates of KPC2 or SHV12. Susceptibility Testing
Minimal Inhibitory Concentrations (MICs) were determined by the broth microdilution method in accordance with Clinical and Laboratories Institute (CLSI) guidelines. In brief, fresh overnight bacterial cultures were suspended in sterile saline, and adjusted to a 0.5 McFarland turbidity standard. Bacterial suspensions were then diluted in cation adjusted Mueller-Hinton Broth (MHB II; BBL) to yield a final inoculum of approximately 5×10^5 colony-forming units (CFU)/mL. […]

SMILES	MIC [1] [µg/mL]	MIC [2] [µg/mL]
CC(C)(O/N=C(\C(=O)N[C@@H]1C(=O)N(S(=O)(=O)O)[C@@H]1Cn1ccccc1=O)c1csc(N)n1)C(=O)O [Example 15, 2-(((Z)-(1-(2-aminothiazol-4-yl)-2-oxo-2-(((3S,4R)-2-oxo-4-((2-oxopyridin-1(2H)-yl)methyl)-1-sulfoazetidin-3-yl)amino)ethylidene)amino)oxy)-2-methylpropanoic acid]	16 (≈ 30.3 µM)	8 (≈ 15.1 µM)
CC(C)(O/N=C(\C(=O)N[C@@H]1C(=O)N(S(=O)(=O)O)[C@@H]1Cn1cncn1)c1nsc(N)n1)C(=O)O [Example 16, 2-(((Z)-(2-(((2R,3S)-2-((1H-1,2,4-triazol-1-yl)methyl)-4-oxo-1-sulfoazetidin-3-yl)amino)-1-(5-amino-1,2,4-thiadiazol-3-yl)-2-oxoethylidene)amino)oxy)-2-methylpropanoic acid]	4 (≈ 7.94 µM)	2 (≈ 3.97 µM)
Nc1nc(/C(=N/OCC(=O)O)C(=O)N[C@@H]2C(=O)N(S(=O)(=O)O)[C@@H]2Cn2cncn2)cs1 [Example 17, 2-(((Z)-(2-(((2R,3S)-2-((1H-1,2,4-triazol-1-yl)methyl)-4-oxo-1-sulfoazetidin-3-yl)amino)-1-(2-aminothiazol-4-yl)-2-oxoethylidene)amino)oxy)acetic acid]	0.5 (≈ 1.05 µM)	0.25 (≈ 0.527 µM)
Nc1nc(/C(=N/OC2(C(=O)O)CC2)C(=O)N[C@@H]2C(=O)N(S(=O)(=O)O)[C@@H]2Cn2cncn2)cs1 [Example 18, 1-(((Z)-(2-(((2R,3S)-2-((1H-1,2,4-triazol-1-yl)methyl)-4-oxo-1-sulfoazetidin-3-yl)amino)-1-(2-aminothiazol-4-yl)-2-oxoethylidene)amino)oxy)cyclopropanecarboxylic acid]	0.5 (≈ 0.999 µM)	0.25 (≈ 0.5 µM)
NCc1cnn(C[C@@H]2[C@H](NC(=O)/C(=N\OC3(C(=O)O)CC3)c3csc(N)n3)C(=O)N2S(=O)(=O)O)n1 [Example 19, 1-(((Z)-(2-(((2R,3S)-2-((4-(aminomethyl)-2H-1,2,3-triazol-2-yl)methyl)-4-oxo-1-sulfoazetidin-3-yl)amino)-1-(2-aminothiazol-4-yl)-2-oxoethylidene)amino)oxy)cyclopropanecarboxylic acid]	0.25 (≈ 0.472 µM)	0.25 (≈ 0.472 µM)
Nc1nc(/C(=N/OCC(=O)O)C(=O)N[C@@H]2C(=O)N(S(=O)(=O)O)[C@@H]2CN2CCOC2=O)cs1 [Example 21, 2-(((Z)-(1-(2-aminothiazol-4-yl)-2-oxo-2-(((3S,4R)-2-oxo-4-((2-oxooxazolidin-3-yl)methyl)-1-sulfoazetidin-3-yl)amino)ethylidene)amino)oxy)acetic acid]	0.25 (≈ 0.508 µM)	0.5 (≈ 1.02 µM)
C[C@@H]1CN(C[C@@H]2[C@H](NC(=O)/C(=N\OC(C)(C)C(=O)O)c3csc(N)n3)C(=O)N2S(=O)(=O)O)C(=O)O1 [Example 23, 2-(((Z)-(1-(2-aminothiazol-4-yl)-2-(((2R,3S)-2-(((R)-5-methyl-2-oxooxazolidin-3-yl)methyl)-4-oxo-1-sulfoazetidin-3-yl)amino)-2-oxoethylidene)amino)oxy)-2-methylpropanoic acid]	2 (≈ 3.74 µM)	1 (≈ 1.87 µM)
CC(C)(O/N=C(\C(=O)N[C@@H]1C(=O)N(S(=O)(=O)O)[C@@H]1CN1C[C@@H](CNC(=N)N)OC1=O)c1csc(N)n1)C(=O)O [Example 24, 2-(((Z)-(1-(2-aminothiazol-4-yl)-2-(((2R,3S)-2-(((R)-5-(guanidinomethyl)-2-oxooxazolidin-3-yl)methyl)-4-oxo-1-sulfoazetidin-3-yl)amino)-2-oxoethylidene)amino)oxy)-2-methylpropanoic acid]	0.25 (≈ 0.423 µM)	1 (≈ 1.69 µM)
NC[C@@H]1CN(C[C@@H]2[C@H](NC(=O)/C(=N\OC3(C(=O)O)CC3)c3csc(N)n3)C(=O)N2S(=O)(=O)O)C(=O)O1 [Example 25, 1-(((Z)-(2-(((2R,3S)-2-(((R)-5-(aminomethyl)-2-oxooxazolidin-3-yl)methyl)-4-oxo-1-sulfoazetidin-3-yl)amino)-1-(2-aminothiazol-4-yl)-2-oxoethylidene)amino)oxy)-cyclopropanecarboxylic acid]	0.125 (≈ 0.228 µM)	≤ 0.06
N=C(N)NC[C@@H]1CN(C[C@@H]2[C@H](NC(=O)/C(=N\OC3(C(=O)O)CC3)c3csc(N)n3)C(=O)N2S(=O)(=O)O)C(=O)O1 [Example 26, 1-(((Z)-(1-(2-aminothiazol-4-yl)-2-(((2R,3S)-2-(((R)-5-(guanidinomethyl)-2-oxooxazolidin-3-yl)methyl)-4-oxo-1-sulfoazetidin-3-yl)amino)-2-oxoethylidene)amino)oxy)-cyclopropanecarboxylic acid]	0.125 (≈ 0.212 µM)	≤ 0.06
NCc1cn(C[C@@H]2[C@H](NC(=O)/C(=N\OC3(C(=O)O)CC3)c3csc(N)n3)C(=O)N2S(=O)(=O)O)nn1 [Example 27, 1-(((Z)-(2-(((2R,3S)-2-((4-(aminomethyl)-1H-1,2,3-triazol-1-yl)methyl)-4-oxo-1-sulfoazetidin-3-yl)amino)-1-(2-aminothiazol-4-yl)-2-oxoethylidene)amino)oxy)cyclopropanecarboxylic acid]	≤ 0.06	0.125 (≈ 0.236 µM)
C[C@H](O/N=C(\C(=O)N[C@@H]1C(=O)N(S(=O)(=O)O)[C@@H]1Cn1cncn1)c1csc(N)n1)C(=O)O [Example 29, (S)-2-(((Z)-(2-(((2R,3S)-2-((1H-1,2,4-triazol-1-yl)methyl)-4-oxo-1-sulfoazetidin-3-yl)amino)-1-(2-aminothiazol-4-yl)-2-oxoethylidene)amino)oxy)propanoic acid]	0.25 (≈ 0.512 µM)	1 (≈ 2.05 µM)
C[C@@H](O/N=C(\C(=O)N[C@@H]1C(=O)N(S(=O)(=O)O)[C@@H]1Cn1cncn1)c1csc(N)n1)C(=O)O [Example 30, (R)-2-(((Z)-(2-(((2R,3S)-2-((1H-1,2,4-triazol-1-yl)methyl)-4-oxo-1-sulfoazetidin-3-yl)amino)-1-(2-aminothiazol-4-yl)-2-oxoethylidene)amino)oxy)propanoic acid]	1 (≈ 2.05 µM)	1 (≈ 2.05 µM)
Nc1nc(/C(=N/OC2(C(=O)O)CCC2)C(=O)N[C@@H]2C(=O)N(S(=O)(=O)O)[C@@H]2Cn2cncn2)cs1 [Example 32, 1-(((Z)-(2-(((2R,3S)-2-((1H-1,2,4-triazol-1-yl)methyl)-4-oxo-1-sulfoazetidin-3-yl)amino)-1-(2-aminothiazol-4-yl)-2-oxoethylidene)amino)oxy)cyclobutanecarboxylic acid]	2 (≈ 3.89 µM)	1 (≈ 1.94 µM)
